“And” between values parts separate entries of the source, which are not always exact repeats. Identical values can stand only once.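 Briefly, cells in 96-well plates were exposed to five compound concentrations for 48 h, and endpoints were estimated by linear interpolation. GI50 is the concentration that inhibits growth by half. At the TGI there is no net growth.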
How the values were obtained:
Assay in all cases: inhibition of tumour cell growth, NCI panel, 48 h
[1] = tested on: PC-3 prostate
[2] = tested on: RPMI-8226 leukemia
[3] = tested on: A498 renal
[4] = tested on: NCI-H23 lung
[5] = tested on: OVCAR-4 ovarian
[6] = tested on: SF-539 CNS
[7] = tested on: SW-620 colon
[8] = tested on: U251 CNS
[9] = tested on: A549 NSCLC
[10] = tested on: MOLT-4 leukemia

Row | SMILES | GI50 [1] | TGI [1] [µM] | GI50 [2] | TGI [3] | GI50 [4] | TGI [5] | TGI [6] | GI50 [7] | TGI [7] [µM] | GI50 [8] | TGI [8] | GI50 [9] | TGI [9] [µM] | GI50 [10] [µM] | TGI [2] | GI50 [3] | TGI [4] [µM] | GI50 [5] | GI50 [6] | TGI [10] [µM]
1 | COc1cccc(-c2cc(=O)c3cc(OC)ccc3[nH]2)c1 | 0.112 µM | > 100 | 0.0288 µM | 0.111 µM | 0.358 µM | > 100 µM | 0.451 µM | 0.0445 µM | > 100 | 0.057 µM | 3.36 µM and 13.2 µM | 0.305 µM | > 100 | 0.0411 |  |  |  |  |  | 
2 | CO[C@H]1/C=C/O[C@@]2(C)Oc3c(C)c(O)c4c(c3C2=O)C(=O)C(/C=N/N(c2ccccc2)c2ccccc2)=C(NC(=O)/C(C)=C\C=C\[C@H](C)[C@H](O)[C@@H](C)[C@@H](O)[C@@H](C)[C@H](OC(C)=O)[C@@H]1C)C4=O | 1.32 µM | 2.82 | 1.43 µM | 2.84 µM | 2.44 µM | 3.15 µM | 3.56 µM | 1.83 µM | 3.61 | 1.86 µM | 3.4 µM | 1.69 µM | 3.29 | 1.85 | 4.31 µM | 1.43 µM | 5.1 | 1.65 µM | 1.8 µM | 6.07
3 | COc1cc(OC)cc(N(CCNC(C)C)c2ccc3ncc(-c4cnn(C)c4)nc3c2)c1 | 6.54 µM | 23.2 | 7.3 µM | 3.5 µM | 6.9 µM | 14.8 µM | 7.25 µM | 6.38 µM | 20.4 | 4.32 µM | 19.6 µM | 5.33 µM | 19.1 | 2.99 | 33.1 µM |  | 20.9 | 2.25 µM | 0.586 µM | 12
4 | CCc1cccc(C)c1NC(=O)c1sc2nc3c(cc2c1N)CCCCC3 | 3.19 µM | > 100 | 4.3 µM | 23.3 µM | 4.67 µM | > 100 µM | 8.21 µM | 3.76 µM | > 100 | 3.62 µM | 80.9 µM | 4.14 µM | > 100 | 4.56 | 25 µM | 2.2 µM | > 100 | 8.37 µM | 2.29 µM | > 100
5 | O=C(CO[N+](=O)[O-])Nc1ccc(C(=O)/C=C/c2ccc(Cl)cc2)cc1 | 2.74 µM | 14.8 | 1.41 µM | 54.9 µM | 4.55 µM | 21 µM | 8.81 µM | 1.44 µM | 2.88 | 1.48 µM | 3.15 µM | 5.71 µM | 20.6 | 4.68 | 8.36 µM | 15.4 µM | 22.1 | 4.06 µM | 2.52 µM | 69.4
6 | Cn1cc(C2=C(c3cn(CCCCN)c4ccccc34)C(=O)NC2=O)c2ccccc21 | > 25 µM | > 25 | > 25 µM | > 25 µM | > 25 µM | > 25 µM | > 25 µM | > 25 µM | > 25 | > 25 µM | > 25 µM | > 25 µM | > 25 | > 25 | > 25 µM | > 25 µM | > 25 | > 25 µM | > 25 µM | > 25
7 | Cc1nc(SCC(=O)Nc2nc(-c3ccc(Cl)cc3)cs2)n(Nc2ccccc2)c1C | 2.34 µM | 11 | 3.55 µM | 10.5 µM | 1.85 µM | 22.1 µM | 4.27 µM | 5.5 µM | 22.9 | 3.13 µM | 13 µM | 2.9 µM | 11.6 | 2.51 | > 100 µM | 2.24 µM | 6.02 | 4.6 µM | 1.9 µM | 9.94
8 | FC(F)c1nc2ccccc2n1-c1nc(N2CCOCC2)nc(N2CCOCC2)n1 | 0.0722 µM and 0.113 µM |  | 0.482 µM and 0.345 µM | 0.169 µM and 0.138 µM | 0.492 µM and 0.617 µM | 6.87 µM and 5.39 µM | 2.29 µM and 3.52 µM | 0.573 µM and 1.16 µM | > 100 | 0.735 µM and 0.559 µM | > 100 µM | 0.518 µM and 0.584 µM | > 100 | 0.347 | > 7.2 µM and 4.26 µM | 0.0303 µM and 0.0216 µM |  | 0.797 µM and 0.475 µM | 0.382 µM and 0.457 µM | > 100
9 | CCOC(=O)c1sc(-c2ccc(OS(=O)(=O)c3ccc(Br)s3)c(C=O)c2)nc1C | 2.97 µM | 11 | 1.94 µM | 40.1 µM | 3.37 µM | 9.85 µM | 6.16 µM | 3.28 µM | 12.8 | 2.68 µM | 10.3 µM | 22.7 µM | > 100 | 2.73 | 5.18 µM | 6.15 µM | 13.7 | 3.06 µM | 2.43 µM | 8.3
10 | S=C(Nc1ccc(Br)cc1)Nc1ccc(Br)cc1 | 4.17 µM | > 100 | 4.05 µM | > 100 µM | 3.47 µM | > 100 µM | > 100 µM | 4.43 µM | > 100 | 8.39 µM | > 100 µM | 5.8 µM | > 100 | 6.59 | > 100 µM | 5.38 µM | > 100 | 7.51 µM | > 100 µM | > 100
11 | C#Cc1cccc(N2C(=O)CCC2=O)c1 |  | 28.6 |  | 29.5 µM |  | 20.5 µM | 46.9 µM |  | 19.2 |  | 33 µM |  | 42.7 |  | 15.9 µM |  | 24.5 |  |  | 23
12 | CC(=O)OCC1OC(n2c(-c3ccc(Cl)cc3)ccc(C#N)c2=S)C(OC(C)=O)C(OC(C)=O)C1OC(C)=O (stereo not drawn) |  | > 100 |  | 56.1 µM and > 100 µM | 29.3 µM and > 100 µM | > 100 µM and 93.3 µM | 99 µM and > 100 µM |  | > 100 | 10.4 µM and 61.4 µM | 40 µM and > 100 µM |  | > 100 |  | > 100 µM | 24.9 µM and 73.8 µM | > 100 | > 100 µM and 19.9 µM |  | > 100
13 | COc1ccc2c(c1)C(=O)c1c-2n(CCCN=[N+]=[N-])c(=O)c2cc(OC)c(OC)cc12 | 50 µM | > 100 | 0.868 µM | > 100 µM |  | > 100 µM | > 100 µM | > 100 µM | > 100 | 24.2 µM | > 100 µM | 33 µM | > 100 | 10.6 | 5.58 µM | > 100 µM |  | > 100 µM | 56.5 µM | 23.5
